The values that follow come from publication PMC8508694, “Insights into the Genetic Variations of Human Cytochrome P450 2C9: Structural Analysis, Characterization and Comparison” (International Journal of Molecular Sciences, 2021).

Usually Kd stands for the equilibrium constant for the complex coming apart. High values mean weaker binding, low ones tighter binding.

One data set addresses T1, CYP2C9*3 (Homo sapiens, UniProt P11712, I359L/V490I).
T1 construct: residues 1 to 23 (N-terminal transmembrane anchor) replaced with MAKKT, V490I, C-terminal four-histidine tag
In words: ITC. Type of data set: binding.

The next data set has as its target T2, CYP2C9*8 (Homo sapiens, UniProt P11712, R150H/V490I).
T2 construct: residues 1 to 23 (N-terminal transmembrane anchor) replaced with MAKKT, V490I, C-terminal four-histidine tag
Description: ([…] Å) and ITC. Type of data set: binding.

T2 sequence (P11712 24-490 R150H/V490I): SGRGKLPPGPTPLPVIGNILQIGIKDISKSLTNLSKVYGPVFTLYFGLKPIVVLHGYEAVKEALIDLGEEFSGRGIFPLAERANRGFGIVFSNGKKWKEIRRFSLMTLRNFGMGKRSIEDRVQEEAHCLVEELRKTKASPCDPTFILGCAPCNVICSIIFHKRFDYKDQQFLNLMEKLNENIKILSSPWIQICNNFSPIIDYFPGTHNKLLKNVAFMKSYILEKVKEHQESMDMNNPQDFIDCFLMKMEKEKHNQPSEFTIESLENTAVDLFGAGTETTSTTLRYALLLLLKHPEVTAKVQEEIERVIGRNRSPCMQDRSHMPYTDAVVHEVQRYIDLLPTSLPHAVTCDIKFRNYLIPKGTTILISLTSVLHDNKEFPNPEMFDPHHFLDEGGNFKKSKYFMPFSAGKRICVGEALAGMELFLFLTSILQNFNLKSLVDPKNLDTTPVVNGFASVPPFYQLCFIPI
T1 sequence (P11712 24-490 I359L/V490I): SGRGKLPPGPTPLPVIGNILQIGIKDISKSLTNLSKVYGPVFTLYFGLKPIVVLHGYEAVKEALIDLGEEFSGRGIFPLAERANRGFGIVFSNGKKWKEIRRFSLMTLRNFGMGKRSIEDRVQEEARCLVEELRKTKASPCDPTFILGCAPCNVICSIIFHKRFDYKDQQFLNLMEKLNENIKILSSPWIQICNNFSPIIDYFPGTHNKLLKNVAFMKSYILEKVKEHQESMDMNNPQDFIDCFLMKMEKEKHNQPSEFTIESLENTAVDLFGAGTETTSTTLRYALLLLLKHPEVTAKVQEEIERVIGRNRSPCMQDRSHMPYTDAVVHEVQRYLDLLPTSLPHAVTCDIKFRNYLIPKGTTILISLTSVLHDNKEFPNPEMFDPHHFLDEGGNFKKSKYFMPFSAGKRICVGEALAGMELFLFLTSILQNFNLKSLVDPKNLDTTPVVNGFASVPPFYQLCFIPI

With `CCCCc1nc(Cl)c(CO)n1Cc1ccc(-c2ccccc2-c2nn[nH]n2)cc1` [losartan], the Kd came out at 24.5 ± 2.7 µM at CYP2C9*3 and 8.95 ± 0.97 µM at CYP2C9*8.
